Experimental data as given in patent US20090191137A1, “Method and Material for Controlling or Eliminating Potentially Harmful, Contaminating or Nuisance Micro-Organisms or Cells” (priority 2007, published 2009).

Test system: algae (Chlamydomonas)
Assay: NM7O added to a suspension of algae (algaecide test)
Type: cell-based
Details: algae 1×10^6 cells/ml in tubes
Source text: The color change can serve as a valuable indicator of activity, as untreated NM7O remains suspended and violet colored.
This may be due to the requirement of direct contact between the product and the algae.

Q: O=S(=O)([O-])[O-].[Cu+2] [copper sulfate] was tested. Which “effect on algal suspension (appearance of the solution)” value did it give?
A: the solution turned blue

Q: And the “microscopic evaluation of the sediment (appearance of treated cells)” value?
A: appeared intact with full cellular contents
